Values quoted from earlier work, collected in paper PMC6915728 (Nature Communications, 2019).
Where two headings read alike, the source gives them in different places. Ends that are not written are not given here.

Test system: bacterial species in which the gene showed activity
Details: cited from earlier work
[1] = Salmonella enterica serovar Typhimurium, ref http://www.microbiologyresearch.org/docserver/fulltext/micro/154/2/666.pdf?expires=1487718158&id=id&accname=guest&checksum=D8B884D02A8B2A8619216A48E0826377
[2] = Salmonella typhimurium, Escherichia coli, ref https://www.ncbi.nlm.nih.gov/pmc/articles/PMC3037666/, https://www.ncbi.nlm.nih.gov/pmc/articles/PMC3837802/pdf/zam7770.pdf
[3] = Staphylococcus epidermidis, ref http://jb.asm.org/content/178/2/531.full.pdf, https://www.ncbi.nlm.nih.gov/pmc/articles/PMC4239024/
[4] = Staphylococcus aureus, Staphylococcus xylosus, ref http://www.jbc.org/content/274/13/8405.full.pdf
[5] = Staphylococcus aureus, ref https://www.ncbi.nlm.nih.gov/pubmed/14707093
[6] = Staphylococcus aureus, ref http://onlinelibrary.wiley.com/doi/10.1111/j.1365-2958.2007.05986.x/epdf
[7] = Klebsiella pneumoniae, ref http://iai.asm.org/content/72/12/7107.full.pdf+html
[8] = Neisseria meningitidis, Neisseria gonorrhoeae, ref http://www.ncbi.nlm.nih.gov/pmc/articles/PMC1196002/
[9] = Neisseria meningitidis, ref https://www.ncbi.nlm.nih.gov/pmc/articles/PMC1196002/
[10] = Staphylococcus aureus, SalmonellaTyphimurium, ref http://ac.els-cdn.com/S0022202X15369608/1-s2.0-S0022202X15369608-main.pdf?_tid=6fa51c80-693e-11e6-b18c-00000aacb362&acdnat=1471962936_8118358d97a056d7d78b5e8b4ca8d03b, https://www.sciencedirect.com/science/article/pii/S0928824401002917
[11] = Klebsiella pneumoniae, ref http://www.ncbi.nlm.nih.gov/pmc/articles/PMC2798511/
[12] = Salmonella typhimurium, Escherichia coli, ref https://www.ncbi.nlm.nih.gov/pmc/articles/PMC3037666/, https://www.ncbi.nlm.nih.gov/pmc/articles/PMC4808223/
[13] = Salmonella typhimurium, ref https://www.ncbi.nlm.nih.gov/pmc/articles/PMC3037666/

Compound: CC[C@H](C)[C@H](NC(=O)CN)C(=O)NCC(=O)N[C@@H](C)C(=O)N[C@H](C(=O)N[C@@H](CC(C)C)C(=O)N[C@@H](CCCCN)C(=O)N[C@H](C(=O)N[C@@H](CC(C)C)C(=O)N[C@H](C(=O)N[C@H](C(=O)NCC(=O)N[C@@H](CC(C)C)C(=O)N1CCC[C@H]1C(=O)N[C@@H](C)C(=O)N[C@@H](CC(C)C)C(=O)N[C@H](C(=O)N[C@@H](CO)C(=O)N[C@@H](Cc1c[nH]c2ccccc12)C(=O)N[C@H](C(=O)N[C@@H](CCCCN)C(=O)N[C@@H](CCCNC(=N)N)C(=O)N[C@@H](CCCCN)C(=O)N[C@@H](CCCNC(=N)N)C(=O)N[C@@H](CCC(N)=O)C(=O)N[C@@H](CCC(N)=O)C(N)=O)[C@@H](C)CC)[C@@H](C)CC)[C@@H](C)O)[C@@H](C)O)C(C)C)C(C)C [melittin]
- Gene that modulates bacterial susceptibility to the AMP [1]: yejA
- Gene that modulates bacterial susceptibility to the AMP [2]: cpxA (CpxA/CpxR)

Compound: CRAMP
- Gene that modulates bacterial susceptibility to the AMP: pgtE

Compound: Colistin
- Gene that modulates bacterial susceptibility to the AMP (Acinetobacter baumannii, ref https://mbio.asm.org/content/4/3/e00021-13): pmrB
- Gene that modulates bacterial susceptibility to the AMP (Escherichia coli, Klebsiella pneumoniae, Pseudomonas aeruginosa, Kluyvera ascorbata, ref http://www.ncbi.nlm.nih.gov/pubmed/26603172, http://ac.els-cdn.com/S1473309915005332/1-s2.0-S1473309915005332-main.pdf?_tid=16a7f944-6944-11e6-8a9d-00000aab0f02&acdnat=1471965364_7f481026d1a49114e23adef4a6b4d1a9, https://www.ncbi.nlm.nih.gov/pmc/articles/PMC5119035/): mcr1
- Gene that modulates bacterial susceptibility to the AMP (Pseudomonas aeruginosa, ref https://onlinelibrary.wiley.com/doi/epdf/10.1111/j.1365-2958.2008.06152.x): mexA, mexB

Compound: Epidermin (IASKFICTPGCAKTGSFNSYCC; also: lantibiotic, thioether rings, places not given here; UniProt P08136 31-52, looked up)
- Gene that modulates bacterial susceptibility to the AMP [3]: epiE, epiF, epiG

Compound: GIGKFLHSAKKFGKAFVGEIMNS [Magainin 2]
- Gene that modulates bacterial susceptibility to the AMP (Salmonella enterica serovar Typhimurium, ref http://onlinelibrary.wiley.com/doi/10.1111/j.1365-2958.2004.04107.x/full): yqjA
- Gene that modulates bacterial susceptibility to the AMP (Salmonella enterica serovar Typhimurium, ref http://www.jbc.org/content/279/37/38618.long, https://onlinelibrary.wiley.com/doi/epdf/10.1111/j.1365-2958.2005.04553.x): slyA
- Gene that modulates bacterial susceptibility to the AMP (Salmonella enterica serovar Typhimurium, ref http://www.jbc.org/content/279/37/38618.long): ugtL

Compound: Human alfa-defensin1
- Gene that modulates bacterial susceptibility to the AMP [4]: dltA (dlt operon)

Compound: Human alfa-defensin3
- Gene that modulates bacterial susceptibility to the AMP [4]: dltA (dlt operon)

Compound: Human alpha-defensin-1
- Gene that modulates bacterial susceptibility to the AMP [5]: sak

Compound: Human alpha-defensin-2 (CYCRIPACIAGERRYGTCIYQGRLWAFCC; ends and bridges not checked; cysteine pairing not given here; UniProt P59665 66-94, looked up)
- Gene that modulates bacterial susceptibility to the AMP [5]: sak

Compound: Human beta-defensin3 (GIINTLQKYYCRVRGGRCAVLSCLPKEEQIGKCSTRGRKCCRRKK; ends and bridges not checked; cysteine pairing not given here; UniProt P81534 23-67, looked up)
- Gene that modulates bacterial susceptibility to the AMP [6]: apsS

Compound: Human neutrophil peptide-1
- Gene that modulates bacterial susceptibility to the AMP [7]: cps

Compound: LL-37 (LLGDFFRKSKEKIGKEFKRIVQRIKDFLRNLVPRTES; Antibacterial peptide LL-37; UniProt P49913 134-170, looked up)
- Gene that modulates bacterial susceptibility to the AMP [8]: mtrC, mtrD, mtrE
- Gene that modulates bacterial susceptibility to the AMP [9]: lptA
- Gene that modulates bacterial susceptibility to the AMP [10]: hemB
- Gene that modulates bacterial susceptibility to the AMP (Staphylococcus epidermidis, ref http://onlinelibrary.wiley.com/doi/10.1046/j.1462-5822.2004.00367.x/epdf): icaA(ica operon)

Compound: Magainin II
- Gene that modulates bacterial susceptibility to the AMP [4]: dltA (dlt operon)

Compound: Nisin
- Gene that modulates bacterial susceptibility to the AMP (Bacillus subtilis, gene psdA (yvcR), […]): psdA (yvcR)
- Gene that modulates bacterial susceptibility to the AMP (Bacillus subtilis, gene psdB (yvcS), […]): psdB (yvcS)
- Gene that modulates bacterial susceptibility to the AMP (Lactococcus lactis, genes nisE, nisF, nisG, […]): nisE, nisF, nisG
- Gene that modulates bacterial susceptibility to the AMP (Lactococcus lactis, genes ysaB, ysaC, […]): ysaB, ysaC
- Gene that modulates bacterial susceptibility to the AMP (Listeria monocytogenes, […]): anrA (lmo2114)
- Gene that modulates bacterial susceptibility to the AMP (Staphylococcus aureus, […]): braA,braB

Compound: bacitracin
- Gene that modulates bacterial susceptibility to the AMP (Listeria monocytogenes, ref https://www.ncbi.nlm.nih.gov/pmc/articles/PMC2944581/): anrA (lmo2114)
- Gene that modulates bacterial susceptibility to the AMP (Staphylococcus aureus, ref https://www.ncbi.nlm.nih.gov/pmc/articles/PMC3718698/): braA,braB

Compound: beta-defensin-1 (DHYNCVSSGGQCLYSACPIFTKIQGTCYRGKAKCCK; ends and bridges not checked; cysteine pairing not given here; UniProt P60022 33-68, looked up)
- Gene that modulates bacterial susceptibility to the AMP: pla

Compound: colistin
- Gene that modulates bacterial susceptibility to the AMP (Acinetobacter baumannii, ref http://aac.asm.org/content/54/12/4971.full.pdf+html): lpxA
- Gene that modulates bacterial susceptibility to the AMP [10]: hemB

Compound: dermcidin (SSLLEKGLDGAKKAVGGLGKLGKDAVEDLESVGKGAVHDVKDVLDSV; DCD-1; UniProt P81605 63-109, looked up)
- Gene that modulates bacterial susceptibility to the AMP [6]: apsS

Compound: gallidermin (IASKFLCTPGCAKTGSFNSYCC; also: lantibiotic, thioether rings, places not given here; UniProt P21838 31-52, looked up)
- Gene that modulates bacterial susceptibility to the AMP [4]: dltA (dlt operon)
- Gene that modulates bacterial susceptibility to the AMP [3]: epiE, epiF, epiG

Compound: human beta-defensin 1 (DHYNCVSSGGQCLYSACPIFTKIQGTCYRGKAKCCK; ends and bridges not checked; cysteine pairing not given here; UniProt P60022 33-68, looked up)
- Gene that modulates bacterial susceptibility to the AMP [11]: acrB

Compound: human beta-defensin 2
- Gene that modulates bacterial susceptibility to the AMP [11]: acrB
- Gene that modulates bacterial susceptibility to the AMP [10]: hemB

Compound: human beta-defensin 3 (GIINTLQKYYCRVRGGRCAVLSCLPKEEQIGKCSTRGRKCCRRKK; ends and bridges not checked; cysteine pairing not given here; UniProt P81534 23-67, looked up)
- Gene that modulates bacterial susceptibility to the AMP [10]: hemB

Compound: human beta-defensin-1 (DHYNCVSSGGQCLYSACPIFTKIQGTCYRGKAKCCK; ends and bridges not checked; cysteine pairing not given here; UniProt P60022 33-68, looked up)
- Gene that modulates bacterial susceptibility to the AMP (Burkholderia cenocepacia, ref http://www.microbiologyresearch.org/docserver/fulltext/micro/155/9/2818.pdf?expires=1468919235&id=id&accname=guest&checksum=2CEA64BA8195145BE72C98BB20076628): zmpB
- Gene that modulates bacterial susceptibility to the AMP [7]: cps
- Gene that modulates bacterial susceptibility to the AMP (Proteus mirabilis, ref http://www.ncbi.nlm.nih.gov/pmc/articles/PMC517467/pdf/0713-04.pdf): zapA

Compound: human beta-defensin-2
- Gene that modulates bacterial susceptibility to the AMP [1]: yejA

Compound: human defensin (human beta-defensin)-1 (DHYNCVSSGGQCLYSACPIFTKIQGTCYRGKAKCCK; ends and bridges not checked; cysteine pairing not given here; UniProt P60022 33-68, looked up)
- Gene that modulates bacterial susceptibility to the AMP [1]: yejA

Compound: human neutrophil peptide-1
- Gene that modulates bacterial susceptibility to the AMP [11]: acrB
- Gene that modulates bacterial susceptibility to the AMP [12]: amiA, amiC

Compound: lactoferricin B
- Gene that modulates bacterial susceptibility to the AMP [10]: hemB

Compound: lactoferrin
- Gene that modulates bacterial susceptibility to the AMP [7]: cps

Compound: magainin 2
- Gene that modulates bacterial susceptibility to the AMP [2]: cpxA (CpxA/CpxR)
- Gene that modulates bacterial susceptibility to the AMP [12]: amiA, amiC
- Gene that modulates bacterial susceptibility to the AMP [13]: tatA

Compound: mellitin
- Gene that modulates bacterial susceptibility to the AMP [12]: amiA, amiC
- Gene that modulates bacterial susceptibility to the AMP [13]: tatA

Compound: nisin
- Gene that modulates bacterial susceptibility to the AMP [4]: dltA (dlt operon)
- Gene that modulates bacterial susceptibility to the AMP [6]: apsS

Compound: polymyxin E
- Gene that modulates bacterial susceptibility to the AMP (Bordetella pertussis, ref http://www.ncbi.nlm.nih.gov/pmc/articles/PMC4136009/): lgmA, IgmB, IgmC

Compound: protegrin
- Gene that modulates bacterial susceptibility to the AMP (Salmonella typhimurium, Salmonella typhi, ref http://www.sciencedirect.com/science/article/pii/S009286740081750X): pagP

Compound: protegrin-1 (RGGRLCYCRRRFCVCVGR; ends and bridges not checked; cysteine pairing not given here; UniProt P32194 131-148, looked up)
- Gene that modulates bacterial susceptibility to the AMP [8]: mtrC, mtrD, mtrE
- Gene that modulates bacterial susceptibility to the AMP [9]: lptA
- Gene that modulates bacterial susceptibility to the AMP: pgtE
